Assay results from publication PMC4635571 (Journal of immunology (Baltimore, Md. : 1950), 2015).

What was measured:
[1] = test system: HCT116 colorectal carcinoma cell line; test: Inhibition of proliferation of HCT116 cells; type: cell-based; conditions: read-out: IC50 of inhibition of proliferation; HCT116, general cytotoxicity
polarized CD4+ T cells [2] = test: P-selectin; type: cell-based, mouse
polarized CD4+ T cells [3] = test: Transwell cell migration assay; type: cell-based, mouse; conditions: 3hr, cells cultured with 25 or 50nM PRN694
ITK = conditions: versus e.g. BMS-509744 and BMS-488516; Fig. 1B
Rag2−/− hosts = test: CD4+ CD45RBhi T cell adoptive transfer model of colitis; type: in vivo
CD-1 mice = test: Anti-CD3-induced cytokines in mouse plasma; type: in vivo; conditions: 20 mg/kg i.p., anti-CD3 1hr or 6hr later, plasma 2hr post-anti-CD3
[4] = test system: Human peripheral blood mononuclear cells (PBMC); test: Cytokine production by human PBMC; type: cell-based
naïve CD4+ T cells = type: cell-based, mouse
phosphorylated-PLCγ1 = test: In vivo target engagement assay; design: species or system mouse; conditions: 40 mg/kg oral, 2hr or 6hr post-treatment, ex vivo anti-CD3/CD28 stimulation

Question: Which results are given for `C=CC(=O)N1CCC[C@@H]1Cn1c(NC(=O)c2ccc(C(F)F)s2)nc2cc(CN[C@@H](C)C(C)(C)C)ccc21` [PRN694]?
Answer: IC50 [1]: 10 µM; P-selectin binding of TH1 and TH17 cells (polarized CD4+ T cells [2]; differentiated 72hr with 25 or 50nM PRN694): reduced P-selectin binding; P-selectin binding of TH2 cells (polarized CD4+ T cells [2]; only visible in the higher dose of inhibitor (50nM)): only a modest reduction; TH17 migration to CCL20 (polarized CD4+ T cells [3]; CCL20 100 ng/mL): reduced approximately two-fold; TH1 migration to CXCL11 (polarized CD4+ T cells [3]; CXCL11 100 ng/mL): inhibited; fold more potent in inhibiting ITK than previously-described ITK inhibitors (ITK): 63- to 320 fold; toxicity during long-term in vivo administration (Rag2−/− hosts; 7 week dosing time frame): no apparent toxicity; CD4+ T cell proportions in intestinal epithelium and LP versus vehicle (Rag2−/− hosts; 7 weeks post-transfer): significantly less; expression of integrin α4β7 and CCR6 on intestinal epithelial CD4+ T cells (Rag2−/− hosts; 7 weeks post-transfer): reduced; histological analysis of the colonic epithelium (Rag2−/− hosts; 7 weeks post-transfer, H&E): reduced inflammation; proportions of cells capable of producing IL-2 (Rag2−/− hosts; 7 weeks post-transfer, PMA/Ionomycin): reduced proportions; reduced colon length (Rag2−/− hosts; 7 weeks post-transfer, oral dosing): prevented; proportions of CD4+ T cells expressing Foxp3 (Rag2−/− hosts; all organs examined, 7 weeks post-transfer): significantly reduced; behavioral indications of toxicity (Rag2−/− hosts; long-term in vivo administration): no behavioral indications of drug-mediated toxicity; proportions of CD4+ T cells producing IFN-γ (Rag2−/− hosts; mesenteric LN, IEL and LP, 7 weeks post-transfer, PMA/Ionomycin): markedly reduced; weight change (disease progression) (Rag2−/− hosts; oral 40 mg/kg once a day or 20 mg/kg twice a day, 7 weeks): no weight loss; increase in plasma IFN-γ, IL-6 and IL-2 induced by anti-CD3 (CD-1 mice): inhibited; increase in IFN-γ, IL-6 and IL-2 induced by anti-CD3/CD28 ([4]; 20nM PRN694, 18hr): strongly inhibited; increase in IFN-γ, IL-6 and IL-2 induced by anti-CD3/CD28 ([4]; 5.0μM PRN694, 18hr): completely blocked; ability to inhibit IL-2 production on thapsigargin stimulation ([4]; PBMC stimulated with thapsigargin 10 μM, 18hr): strongly impaired; inhibition of IFN-γ production by TH1 cells (naïve CD4+ T cells; 25nM PRN694, TH1-polarizing conditions, 72hr, PMA/Ionomycin restimulation 5hr): > 50%; expression levels of transcription factors (T-bet, GATA-3, RORγt) (naïve CD4+ T cells; TH1, TH2, TH17 polarization with inhibitor): decreased; IL-2 production by in vitro polarized CD4+ T cells (naïve CD4+ T cells; all three lineages of T helper cells, 72hr): inhibited; inhibition of IL-4 production by TH2 cells (naïve CD4+ T cells; any of the doses tested, TH2-polarizing conditions, 72hr): < 50%; phosphorylation of PLCγ1 (phosphorylated-PLCγ1): completely blocked
